# Laboratory results taken from patent publication US6737383B1, “Herbicidal oxadiazolidines” (priority 1999, dated 2004).
# Experiments:
# arrowleaf sida = assay: Test C postemergence arrowleaf sida; assay type: in vivo, Sida rhombifolia; conditions: 0 to 100 scale, 0 no effect, 100 complete control
# Protocol: (§1) Compounds evaluated in this test were formulated in a non-phytotoxic solvent mixture which included a surfactant and applied to plants that were grown for various periods of time before treatment (postemergence application). A mixture of sandy loam soil and greenhouse potting mix in a 60:40 ratio was used for the postemergence test.
# (§2) Plantings of these crops and weed species were adjusted to produce plants of appropriate size for the postemergence test. All plant species were grown using normal greenhouse practices. Crop and weed species include arrowleaf sida (Sida rhombifolia), barnyardgrass (Echinochloa crus-galli), cocklebur (Xanthium strumarium), common ragweed (Ambrosia elatior), corn (Zea mays), cotton (Gossypium hirsutum), eastern black nightshade (Solanum ptycanthum), fall panicum (Panicum dichotomiflorum), field bindweed (Convolvulus arvensis), giant foxtail (Setaria faberii), hairy beggarticks (Bidens pilosa), ivyleaf morningglory (Ipomoea hederacea), johnsongrass (Sorghum halepense), ladysthumb smartweed (Polygonum persicaria), lambsquarters (Chenopodium album), large crabgrass (Digitaria sanguinalis), purple nutsedge (Cyperus rotundus), redroot pigweed (Amaranthus retroflexus), soybean (Glycine max), surinam grass (Brachiaria decumbens), velvetleaf (Abutilon theophrasti) and wild poinsettia (Euphorbia heterophylla).
# (§3) Treated plants and untreated controls were maintained in a greenhouse for approximately 14, to 21 days, after which all treated plants were compared to untreated controls and visually evaluated. Plant response ratings, summarized in Table C, were based upon a 0 to 100 scale where 0 was no effect and 100 was complete control. A dash response (−) means no test result.
# Setaria faberii (SETFA) = assay: Test F preemergence, alone and in mixture with rimsulfuron, SETFA; assay type: in vivo; conditions: 21 days after treatment, 0-100 scale
# Protocol: (§4) Abutilon theophrasti (ABUTH), Chenopodium album (CHEAL), Amaranthus rudis (AMATA), Setaria faberii (SETFA), Panicum dichotomiflorum (PANDI), and Digitaria sanguinalis (DIGSA) were grown from seed in pots of an artificial potting mixture in a greenhouse. Compounds of the present invention were applied at 70 and 105 g ai/ha preemergence. Rimsulfuron was applied at 8.8 and 17.5 g ai/ha. Mixtures of the compounds of the present invention and rimsulfuron were also applied.
# (§5) Following application, the plants were maintained by watering as needed. A fertilizer solution of Peter's 20-20-20 (10 pounds/5 gallons of water) plus Sprint 330, a Iron Chelate micronutrient, (113.5 grams/5 gallons of water) was injected into the water with an Anderson fertilizer injection system to provide approximately 219 ppm of nitrogen with each watering. Artificial lighting was used to supplement natural light to produce a 14 hour photoperiod and: an additional one hour light period was used between 1:00 am to 2:00 am for a night interruption. Greenhouse temperatures were targeted for 27° C. in the day and 21° C. at night. At 21 days after treatment, all plants were evaluated for injury as compared to control plants that were sprayed only with non-phytotoxic solvent.
# (§6) Colby's equation was used to calculate the expected additive herbicidal effect of the mixtures of Compound 21 and the mixture partners listed above. […]
# [1] = test system: Chenopodium album (CHEAL); assay: Test F preemergence, alone and in mixture with rimsulfuron, CHEAL; assay type: in vivo; conditions: 21 days after treatment, 0-100 scale
# Protocol: as §4, §5, §6
# [2] = test system: Digitaria sanguinalis (DIGSA); assay: Test F preemergence, alone and in mixture with rimsulfuron, DIGSA; assay type: in vivo; conditions: 21 days after treatment, 0-100 scale
# Protocol: as §4, §5, §6
# velvetleaf = assay: Test C postemergence velvetleaf; assay type: in vivo, Abutilon theophrasti; conditions: 0 to 100 scale, 0 no effect, 100 complete control
# Protocol: as §1, §2, §3
# barnyardgrass = assay: Test C postemergence barnyardgrass; assay type: in vivo, Echinochloa crus-galli; conditions: 0 to 100 scale, 0 no effect, 100 complete control
# Protocol: as §1, §2, §3
# wild poinsettia = assay: Test C postemergence wild poinsettia; assay type: in vivo, Euphorbia heterophylla; conditions: 0 to 100 scale, 0 no effect, 100 complete control
# Method in brief: (§7)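 In this greenhouse assay, treated and untreated plants were kept for approximately 14 to 21 days following postemergence application, then rated by eye on a scale from 0 (no effect) to 100 (complete control).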
# Amaranthus rudis (AMATA) = assay: Test F preemergence, alone and in mixture with rimsulfuron, AMATA; assay type: in vivo; conditions: 21 days after treatment, 0-100 scale
# Protocol: as §4, §5, §6
# certain weeds = assay: Test F overall statement on synergism with rimsulfuron (Colby's equation); assay type: in vivo; conditions: combinations with rimsulfuron, preemergence
# Protocol: as §5, with “Abutilon theophrasti (ABUTH), Chenopodium album (CHEAL), Amaranthus rudis (AMATA), Setaria […]), Panicum dichotomiflorum (PANDI), and Digitaria sanguinalis (DIGSA) were grown from seed in pots of an artificial potting mixture in a greenhouse. Compounds of the present invention were applied at 70 and 105 g ai/ha preemergence. Rimsulfuron was applied at 8.8 and 17.5 g ai/ha. Mixtures of the compounds of the present invention and rimsulfuron were also applied. Following” for “Following”, “solvent. […] Colby's equation was used to calculate the expected additive herbicidal effect of the mixtures of Compound 21 and the mixture partners listed above. […]” for “solvent.”
# giant foxtail = assay: Test C postemergence giant foxtail; assay type: in vivo, Setaria faberii; conditions: 0 to 100 scale, 0 no effect, 100 complete control
# Method in brief: as §7
# ladysthumb smartweed = assay: Test C postemergence ladysthumb smartweed; assay type: in vivo, Polygonum persicaria; conditions: 0 to 100 scale, 0 no effect, 100 complete control
# Protocol: as §1, §2, §3
# johnsongrass = assay: Test C postemergence johnsongrass; assay type: in vivo, Sorghum halepense; conditions: 0 to 100 scale, 0 no effect, 100 complete control
# Method in brief: as §7
# [3] = Alone: Cmpd. rate 70, Rimsulfuron 0
# [4] = Alone: Cmpd. rate 105, Rimsulfuron 0
compound,measurement,setting,value
CC(C)N(C(=O)n1oc(=O)n(C(C)C)c1=O)c1ccccc1 [Compound 113],Plant response rating Arrowleaf sida,arrowleaf sida; Rate 140 g/ha,30
same,Plant response rating Arrowleaf sida,arrowleaf sida; Rate 280 g/ha,40
same,Plant response rating Arrowleaf sida,arrowleaf sida; Rate 560 g/ha,70
same,Plant response rating Arrowleaf sida,arrowleaf sida; Rate 1120 g/ha,95
same,SETFA Observed,Setaria faberii (SETFA); [3],60%
same,SETFA Observed,Setaria faberii (SETFA); [4],65%
same,CHEAL Observed,[1]; [3],15%
same,CHEAL Observed,[1]; [4],35%
same,DIGSA Observed,[2]; [3],95%
same,DIGSA Observed,[2]; [4],70%
same,"Plant response rating, Velvetleaf",velvetleaf; Rate 140 g/ha,0
same,"Plant response rating, Velvetleaf",velvetleaf; Rate 280 g/ha,0
same,"Plant response rating, Velvetleaf",velvetleaf; Rate 560 g/ha,60
same,"Plant response rating, Velvetleaf",velvetleaf; Rate 1120 g/ha,75
same,"Plant response rating, Barnyardgrass",barnyardgrass; Rate 140 g/ha,80
same,"Plant response rating, Barnyardgrass",barnyardgrass; Rate 280 g/ha,80
same,"Plant response rating, Barnyardgrass",barnyardgrass; Rate 560 g/ha,85
same,"Plant response rating, Barnyardgrass",barnyardgrass; Rate 1120 g/ha,95
same,Plant response rating Wild poinsettia,wild poinsettia; Rate 140 g/ha,10
same,Plant response rating Wild poinsettia,wild poinsettia; Rate 280 g/ha,50
same,Plant response rating Wild poinsettia,wild poinsettia; Rate 560 g/ha,80
same,Plant response rating Wild poinsettia,wild poinsettia; Rate 1120 g/ha,95
same,AMATA Observed,Amaranthus rudis (AMATA); [3],35%
same,AMATA Observed,Amaranthus rudis (AMATA); [4],25%
same,Weed control of combination with rimsulfuron compared with expectation from Colby's equation,certain weeds,better control of certain weeds than expected
same,"Plant response rating, Giant foxtail",giant foxtail; Rate 140 g/ha,20
same,"Plant response rating, Giant foxtail",giant foxtail; Rate 280 g/ha,70
same,"Plant response rating, Giant foxtail",giant foxtail; Rate 560 g/ha,80
same,"Plant response rating, Giant foxtail",giant foxtail; Rate 1120 g/ha,80
same,Plant response rating Ladysthumb,ladysthumb smartweed; Rate 140 g/ha,0
same,Plant response rating Ladysthumb,ladysthumb smartweed; Rate 280 g/ha,0
same,Plant response rating Ladysthumb,ladysthumb smartweed; Rate 560 g/ha,85
same,Plant response rating Ladysthumb,ladysthumb smartweed; Rate 1120 g/ha,85
same,"Plant response rating, Johnsongrass",johnsongrass; Rate 140 g/ha,0
same,"Plant response rating, Johnsongrass",johnsongrass; Rate 280 g/ha,20
same,"Plant response rating, Johnsongrass",johnsongrass; Rate 560 g/ha,60
same,"Plant response rating, Johnsongrass",johnsongrass; Rate 1120 g/ha,95
